Test results reported in patent US12162893B2 (Erasca, Inc., priority 2020, dated 2024).

Target: T1, mutant G12C K-RAS (Homo sapiens, UniProt P01116, G12C)
T1 construct: made in house; host or cells: E. coli BL21
Assay: covalent adduct formation (CAF) with mutant G12C K-RAS
Type: binding
Set-up: CAF: unit not given here
Conditions: for % CAF @ 10 μM,1 h: Table 6; for % CAF (60 min) / CAF: after 60 minutes at 10 micromolar; for CAF: Table 3, Pyridone Core-Morpholine Unsubstituted
Method: Embodiments disclosed herein are further illustrated by the following examples in Tables 1-4 and the Examples hereinbelow. The Tables indicate the compound number, structure, the observed mass spectral molecular weight peak, and covalent adduct formation (CAF) with a mutant G12C K-RAS after 60 minutes at a concentration of 10 micromolar.

[1] = Table 1, Pyrimidone Core-Morpholine Unsubstituted
[2] = Table 2, Pyrimidone Core-Morpholine Substituted

| SMILES | % CAF @ 10 μM,1 h [%] | further results |
| --- | --- | --- |
| C=CC(=O)N1C[C@H](C)N(c2nc(=O)n3c4c(c(-c5c(O)cccc5F)c(Cl)cc24)OC[C@@H]3CN2CCC(F)(F)C2)C[C@H]1C [Example 221, (3S,10S)-7-((2S,5R)-4-acryloyl-2,5-dimethylpiperazin-1-yl)-9-chloro-3-((3,3-difluoropyrrolidin-1-yl)methyl)-10-(2-fluoro-6-hydroxyphenyl)-2,3-dihydro-5H-[1,4]oxazino[2,3,4-ij]quinazolin-5-one] | 70.9 | – |
| C=C(F)C(=O)N1CCN(c2nc(=O)n3c4c(c(-c5c(O)cccc5F)c(Cl)cc24)OCC3)C[C@@H]1CC#N (atropisomer, axis not shown) [Example 10, 2-((2S)-4-(9-chloro-10-(2-fluoro-6-hydroxyphenyl)-5-oxo-3,5-dihydro-2H-[1,4]oxazino[2,3,4-ij]quinazolin-7-yl)-1-(2-fluoroacryloyl)piperazin-2-yl)acetonitrile] | – | % CAF (60 min) [1]: 8.5% |
| C=CC(=O)N1CCN(c2c(C#N)c(=O)n3c4c(c(-c5c(O)cccc5F)c(Cl)cc24)OCC3)[C@@H](C)C1 [Example 38, 7-((S)-4-acryloyl-2-methylpiperazin-1-yl)-9-chloro-10-(2-fluoro-6-hydroxyphenyl)-5-oxo-3,5-dihydro-2H-[1,4]oxazino[2,3,4-ij]quinoline-6-carbonitrile] | – | CAF: 49.1 |
| C=CC(=O)N1C[C@H](C)N(c2nc(=O)n3c4c(c(-c5c(O)cccc5F)c(Cl)cc24)OC[C@@H]3Cn2cccn2)C[C@H]1C (atropisomer, axis not shown) [Example 243, (3S,10S)-3-((1H-pyrazol-1-yl)methyl)-7-((2S,5R)-4-acryloyl-2,5-dimethylpiperazin-1-yl)-9-chloro-10-(2-fluoro-6-hydroxyphenyl)-2H-[1,4]oxazino[2,3,4-ij]quinazolin-5(3H)-one] | 80.6 | – |
| C=CC(=O)N1C[C@H](C)N(c2nc(=O)n3c4c(c(-c5ccc(F)cc5F)c(Cl)cc24)OC[C@@H]3Cn2ccnc2)C[C@H]1C [Example 238, (3S)-3-((1H-imidazol-1-yl)methyl)-7-((2S,5R)-4-acryloyl-2,5-dimethylpiperazin-1-yl)-9-chloro-10-(2,4-difluorophenyl)-2H-[1,4]oxazino[2,3,4-ij]quinazolin-5(3H)-one] | 79.4 | – |
| C=CC(=O)N1C[C@H](C)N(c2nc(=O)n3c4c(c(-c5ccc(F)cc5F)c(Cl)cc24)OC[C@H]3CO[C@@H]2CCN(C)C2)C[C@H]1C [Example 302, (3R)-7-((2S,5R)-4-acryloyl-2,5-dimethylpiperazin-1-yl)-9-chloro-10-(2,4-difluorophenyl)-3-((((R)-1-methylpyrrolidin-3-yl)oxy)methyl)-2,3-dihydro-5H-[1,4]oxazino[2,3,4-ij]quinazolin-5-one] | 45.8 | – |
| C=CC(=O)N1CCN(c2nc(=O)n3c4c(c(-c5c(O)cccc5F)c(Cl)cc24)OC[C@@H]3CO)[C@@H](C)C1 (single isomer, unassigned) [Example 24] | – | % CAF (60 min) [2]: 0% |
| C=CC(=O)N1C[C@H](C)N(c2nc(=O)n3c4c(c(-c5cccc6ccccc56)c(Cl)cc24)OC[C@H]3Cn2ccnc2)C[C@H]1C (atropisomer, axis not shown) [Example 318, (3R,10S)-3-((1H-imidazol-1-yl)methyl)-7-((2S,5R)-4-acryloyl-2,5-dimethylpiperazin-1-yl)-9-chloro-10-(naphthalen-1-yl)-2,3-dihydro-5H-[1,4]oxazino[2,3,4-ij]quinazolin-5-one] | 70.6 | – |
| C=CC(=O)N1C[C@H](C)N(c2nc(=O)n3c4c(c(-c5ccc(F)cc5F)c(Cl)cc24)OC[C@@H]3CC2(O)CCN(C)CC2)C[C@H]1C [Example 304, (3S)-7-((2S,5R)-4-acryloyl-2,5-dimethylpiperazin-1-yl)-9-chloro-10-(2,4-difluorophenyl)-3-((4-hydroxy-1-methylpiperidin-4-yl)methyl)-2,3-dihydro-5H-[1,4]oxazino[2,3,4-ij]quinazolin-5-one] | 45.1 | – |
| C=CC(=O)N1C[C@H](C)N(c2nc(=O)n3c4c(c(-c5ccc(F)cc5F)c(Cl)cc24)OC[C@@H]3CN2CCN(C)CC2=O)C[C@H]1C [Example 274, (3S)-7-((2S,5R)-4-acryloyl-2,5-dimethylpiperazin-1-yl)-9-chloro-10-(2,4-difluorophenyl)-3-((4-methyl-2-oxopiperazin-1-yl)methyl)-2,3-dihydro-5H-[1,4]oxazino[2,3,4-ij]quinazolin-5-one] | 67 | – |
| C=CC(=O)N1C[C@H](C)N(c2nc(=O)n3c4c(c(-c5ccc(F)cc5F)c(Cl)cc24)OC[C@@H]3CN2C[C@H]3CC[C@@H](C2)N3C)C[C@H]1C [Example 286, (3S)-7-((2S,5R)-4-acryloyl-2,5-dimethylpiperazin-1-yl)-9-chloro-10-(2,4-difluorophenyl)-3-(((1R,5S)-8-methyl-3,8-diazabicyclo[3.2.1]octan-3-yl)methyl)-2H-[1,4]oxazino[2,3,4-ij]quinazolin-5(3H)-one] | 91.6 | – |
| C=CC(=O)N1C[C@H](C)N(c2nc(=O)n3c4c(c(-c5ccc(F)cc5F)c(Cl)cc24)OC[C@@H]3CN(C(=O)[C@@H]2CCCN2C)C2CC2)C[C@H]1C [Example 310, (2S)-N-(((3S)-7-((2S,5R)-4-acryloyl-2,5-dimethylpiperazin-1-yl)-9-chloro-10-(2,4-difluorophenyl)-5-oxo-2,3-dihydro-5H-[1,4]oxazino[2,3,4-ij]quinazolin-3-yl)methyl)-N-cyclopropyl-1-methylpyrrolidine-2-carboxamide] | 53.4 | – |
| C=CC(=O)N1C[C@H](C)N(c2nc(=O)n3c4c(c(-c5ccc(F)cc5F)c(Cl)cc24)OC[C@@H]3COC[C@@H]2CCCN2C)C[C@H]1C [Example 296, (3S)-7-((2S,5R)-4-acryloyl-2,5-dimethylpiperazin-1-yl)-9-chloro-10-(2,4-difluorophenyl)-3-((((S)-1-methylpyrrolidin-2-yl)methoxy)methyl)-2,3-dihydro-5H-[1,4]oxazino[2,3,4-ij]quinazolin-5-one] | 79.8 | – |
| C=CC(=O)N1C[C@H](C)N(c2nc(=O)n3c4c(c(-c5cc(Cl)ccc5F)c(Cl)cc24)OC[C@@H]3CN2CCC(F)(F)C2)C[C@H]1C [Example 214, (3S)-7-((2S,5R)-4-acryloyl 2,5-dimethylpiperazin-1-yl)-9-chloro-10-(5-chloro-2-fluorophenyl)-3-((3,3-difluoropyrrolidin-1-yl)methyl)-2,3-dihydro-5H [1,4]oxazino[2,3,4-ij]quinazolin-5-one] | 60.9 | – |
| C#CC(=O)N1C[C@H](C)N(c2nc(=O)n3c4c(c(-c5ccc(F)cc5F)c(Cl)cc24)OCC3)C[C@H]1C [Example 14] | – | % CAF (60 min) [1]: 46% |
| C=CC(=O)N1C[C@H](C)N(c2nc(=O)n3c4c(c(-c5ccc(F)cc5F)c(Cl)cc24)OC[C@@H]3CCCN2CCS(=O)(=O)CC2)C[C@H]1C [Example 255, (3S)-7-((2S,5R)-4-acryloyl-2,5-dimethylpiperazin-1-yl)-9-chloro-10-(2,4-difluorophenyl)-3-(3-(1,1-dioxidothiomorpholino)propyl)-2,3-dihydro-5H-[1,4]oxazino[2,3,4-ij]quinazolin-5-one] | 86.8 | – |
| C=CC(=O)N1C[C@H](C)N(c2c(C#N)c(=O)n3c4c(c(-c5c(O)cccc5F)c(Cl)cc24)OCC3)C[C@H]1C [Example 42, (S)-7-((2S,5R)-4-acryloyl-2,5-dimethylpiperazin-1-yl)-9-chloro-10-(2-fluoro-6-hydroxyphenyl)-5-oxo-3,5-dihydro-2H-[1,4]oxazino[2,3,4-ij]quinoline-6-carbonitrile] | – | CAF: 0 |
| C=CC(=O)N1C[C@H](C)N(c2nc(=O)n3c4c(c(-c5ccc(F)cc5)c(Cl)cc24)OCC3CN(C)C)C[C@H]1C (stereo partly drawn) [Example 34, 7-((2S,5R)-4-acryloyl-2,5-dimethylpiperazin-1-yl)-9-chloro-3-((dimethylamino)methyl)-10-(4-fluorophenyl)-2H-[1,4]oxazino[2,3,4-ij]quinazolin-5(3H)-one] | – | % CAF (60 min) [2]: 77.4% |
| C=CC(=O)N1C[C@H](C)N(c2nc(=O)n3c4c(c(-c5c(F)ccc6c5C(=O)NC6)ccc24)OCC3)C[C@H]1C [Example 231, 7-((2S,5R)-4-acryloyl-2,5-dimethylpiperazin-1-yl)-10-(5-fluoro-3-oxoisoindolin-4-yl)-2,3-dihydro-5H-[1,4]oxazino[2,3,4-ij]quinazolin-5-one] | 0 | – |
| C=CC(=O)N1C[C@H](C)N(c2nc(=O)n3c4c(c(-c5ccc(F)cc5F)c(Cl)cc24)OC[C@@H]3CN2C[C@H]3CC[C@@H](C2)N3C2COC2)C[C@H]1C [Example 290, (3S)-7-((2S,5R)-4-acryloyl-2,5-dimethylpiperazin-1-yl)-9-chloro-10-(2,4-difluorophenyl)-3-(((1R,5S)-8-(oxetan-3-yl)-3,8-diazabicyclo[3.2.1]octan-3-yl)methyl)-2H-[1,4]oxazino[2,3,4-ij]quinazolin-5(3H)-one] | 92.6 | – |
| C=CC(=O)N1CCN(c2nc(=O)n3c4c(c(-c5c(O)cccc5F)c(Cl)cc24)OC[C@H]3CN2CCC(F)(F)C2)[C@@H](C)C1 (atropisomer, axis not shown) [Example 227, (3R,10R)-7-((S)-4-acryloyl-2-methylpiperazin-1-yl)-9-chloro-3-((3,3-difluoropyrrolidin-1-yl)methyl)-10-(2-fluoro-6-hydroxyphenyl)-2,3-dihydro-5H-[1,4]oxazino[2,3,4-ij]quinazolin-5-one] | 0 | – |
| C=CC(=O)N1CCN(c2cc(=O)n3c4c(c(-c5c(O)cccc5F)ccc24)CCC3)CC1 [Example 45, 1-(4-acryloylpiperazin-1-yl)-8-(2-fluoro-6-hydroxyphenyl)-6,7-dihydropyrido[3,2,1-ij]quinolin-3(5H)-one] | – | CAF: 1 |
